In the assay the test system is E. coli strain W3110. Put plainly: Synergy assays: Biolog chemical sensitivity panels with Group IB metal, coefficient of drug interaction (CDI) from relative growth. Conditions: for CDI (coefficient of drug interaction) / CDI (coefficient of drug interaction), silver + biocide: E. coli; for CDI (coefficient of drug interaction), gold + biocide: Gold (μM); for CDI (coefficient of drug interaction), copper mixed with biocide: Copper (mM) section. The format is cell-based.

[1] abbreviates: Copper (mM), 1st of 3 copper concentrations (head line not shown), biocide concentration 2 of 4.
[2] abbreviates: Copper (mM), 1st of 3 copper concentrations (head line not shown), biocide concentration 3 of 4.
The mark [3] stands for this setting: Copper (mM), 1st of 3 copper concentrations (head line not shown), biocide concentration 4 of 4.
Setting [4] is: Copper (mM), 2nd of 3 copper concentrations (head line not shown), biocide concentration 1 of 4.
Where [5] appears, read: Copper (mM), 2nd of 3 copper concentrations (head line not shown), biocide concentration 2 of 4.
The mark [6] stands for this setting: Copper (mM), 2nd of 3 copper concentrations (head line not shown), biocide concentration 3 of 4.
Setting [7] is: Copper (mM), 2nd of 3 copper concentrations (head line not shown), biocide concentration 4 of 4.
The mark [8] stands for this setting: Copper (mM), 3rd of 3 copper concentrations (head line not shown), biocide concentration 1 of 4.
Setting [9] is: Copper (mM), 3rd of 3 copper concentrations (head line not shown), biocide concentration 3 of 4.
[10] abbreviates: Copper (mM), 3rd of 3 copper concentrations (head line not shown), biocide concentration 4 of 4.
Setting [11] is: first of 3 gold concentrations, biocide concentration 1 of 4.
The mark [12] stands for this setting: first of 3 gold concentrations, biocide concentration 2 of 4.
Where [13] appears, read: first of 3 gold concentrations, biocide concentration 3 of 4.
Where [14] appears, read: first of 3 gold concentrations, biocide concentration 4 of 4.
[15] abbreviates: second of 3 gold concentrations, biocide concentration 1 of 4.
Where [16] appears, read: second of 3 gold concentrations, biocide concentration 2 of 4.
The mark [17] stands for this setting: second of 3 gold concentrations, biocide concentration 3 of 4.
Setting [18] is: second of 3 gold concentrations, biocide concentration 4 of 4.
Setting [19] is: third of 3 gold concentrations, biocide concentration 1 of 4.
Setting [20] is: third of 3 gold concentrations, biocide concentration 2 of 4.
The mark [21] stands for this setting: third of 3 gold concentrations, biocide concentration 3 of 4.
[22] abbreviates: third of 3 gold concentrations, biocide concentration 4 of 4.
Setting [23] is: Silver 0.5 μM, biocide concentration 1 of 4.
Setting [24] is: Silver 0.5 μM, biocide concentration 2 of 4.
[25] abbreviates: Silver 0.5 μM, biocide concentration 3 of 4.
Setting [26] is: Silver 0.5 μM, biocide concentration 4 of 4.
Setting [27] is: Silver 1.0 μM, biocide concentration 1 of 4.
[28] abbreviates: Silver 1.0 μM, biocide concentration 2 of 4.
The mark [29] stands for this setting: Silver 1.0 μM, biocide concentration 3 of 4.
[30] abbreviates: Silver 1.0 μM, biocide concentration 4 of 4.
[31] abbreviates: Silver 5.0 μM, biocide concentration 1 of 4.
Where [32] appears, read: Silver 5.0 μM, biocide concentration 2 of 4.
[33] abbreviates: Silver 5.0 μM, biocide concentration 3 of 4.
Setting [34] is: Silver 5.0 μM, biocide concentration 4 of 4.

SMILES strings stand for the structures.

As to `CSCCC(N)C(=O)NO` (racemic) [D,L-methionine hydroxamate], the “CDI (coefficient of drug interaction)” value is, setting by setting: under setting [1], 1.19; under setting [2], 1.02; under setting [3], 0.91; under setting [4], 0.84; under setting [5], 0.95; under setting [6], 2.26. Moreover, the “CDI (coefficient of drug interaction)” value under setting [7] came to 3.51, the “CDI (coefficient of drug interaction)” value under setting [8] is listed as 0.98, the “CDI (coefficient of drug interaction)” value under setting [9] is reported as 1.51 and the “CDI (coefficient of drug interaction)” value under setting [10] is reported as 1.54. The “CDI (coefficient of drug interaction), gold + biocide” value (“CDI … gold + biocide” for short) by setting is: under setting [11], 1.08; under setting [12], 1.10; under setting [13], 1.06; under setting [14], “Tox”; under setting [15], 1.03; under setting [16], 1.04. The “CDI … gold + biocide” value is 1.08 under setting [17]; “Tox” under setting [18]; 0.92 under setting [19]; 0.96 under setting [20]; 0.93 under setting [21]; “Tox” under setting [22]. Further, the CDI is 0.88 under setting [23]; 1.04 under setting [24]; “Tox” under setting [25]; “Tox” under setting [26]; 1.04 under setting [27]; 0.99 under setting [28]. The CDI result under setting [29] was “Tox”; the CDI result under setting [30] is reported as “Tox”; the CDI under setting [31] stood at 0.71; the CDI under setting [32] is 0.42; the CDI result under setting [33] was “Tox”; the CDI result under setting [34] is on record as “Tox”.

For the compound `NC(CO)C(=O)NO` (racemic) [D,L-serine hydroxamate], the “CDI (coefficient of drug interaction)” value is, setting by setting: (Copper (mM), 1st of 3 copper concentrations (head line not shown), biocide concentration 1 of 4) 0.98; under setting [1], 0.94; under setting [2], 1.13; under setting [3], “Tox”; under setting [4], 0.77; under setting [5], 0.78. For the same compound, the “CDI (coefficient of drug interaction)” value is 1.03 under setting [6]; 3.47 under setting [7]; 0.62 under setting [8]; 0.66 (Copper (mM), 3rd of 3 copper concentrations (head line not shown), biocide concentration 2 of 4); 1.18 under setting [9]; “Tox” under setting [10]. The “CDI … gold + biocide” value under setting [11] stood at 1.04; the “CDI … gold + biocide” value under setting [12] was 0.95; the “CDI … gold + biocide” value under setting [13] is on record as 1.45; the “CDI … gold + biocide” value under setting [14] turned out to be 0.71; the “CDI … gold + biocide” value under setting [15] is 1.02; the “CDI … gold + biocide” value under setting [16] amounted to 1.00. Also, the “CDI … gold + biocide” value reads like this: under setting [17], 1.22; under setting [18], “Tox”; under setting [19], 0.96; under setting [20], 0.94; under setting [21], 1.00; under setting [22], “Tox”. In addition, the CDI is 0.90 under setting [23]; 0.66 under setting [24]; 0.31 under setting [25]; “Tox” under setting [26]; 0.89 under setting [27]; 0.77 under setting [28]. The CDI is given as 0.62 under setting [29]; “Tox” under setting [30]; 0.82 under setting [31]; 0.61 under setting [32]; 0.53 under setting [33]; “Tox” under setting [34].

`c1cnc2c(c1)ccc1cccnc12` [1,10-phenanthroline]: the CDI result (Copper 0.1 mM, biocide concentration 3 of 4) is listed as “Tox”; the CDI result (Copper 0.1 mM, biocide concentration 4 of 4) is reported as “Tox”; the CDI result (Copper 0.5 mM, biocide concentration 3 of 4) is recorded as “Tox”; the CDI result (Copper 0.5 mM, biocide concentration 4 of 4) is given as “Tox”; the CDI entry (Copper 1.0 mM, biocide concentration 3 of 4) is recorded as “Tox”; the CDI result (Copper 1.0 mM, biocide concentration 4 of 4) is “Tox”. In addition, the “CDI (coefficient of drug interaction)” value is “Tox” (Gold 5 μM, biocide concentration 4 of 4); “Tox” (Gold 25 μM, biocide concentration 4 of 4); “Tox” (Gold 50 μM, biocide concentration 4 of 4). Also, the “CDI (coefficient of drug interaction), silver + biocide” value runs as follows: (Silver 0.5 μM, 3rd of four biocide concentrations) “Tox”; (Silver 0.5 μM, 4th of four biocide concentrations) “Tox”; (Silver 1.0 μM, 3rd of four biocide concentrations) “Tox”; (Silver 1.0 μM, 4th of four biocide concentrations) “Tox”; (Silver 5.0 μM, 3rd of four biocide concentrations) “Tox”; (Silver 5.0 μM, 4th of four biocide concentrations) “Tox”.

On to `O=[N+]([O-])c1ccc(Cl)c([N+](=O)[O-])c1` [1-chloro-2,4-dinitrobenzene], for which the “CDI (coefficient of drug interaction), copper mixed with biocide” value by setting is: (1st of 3 copper concentrations (value not shown), 4th of four biocide concentrations) “Tox”; (2nd of 3 copper concentrations (value not shown), 4th of four biocide concentrations) “Tox”; (3rd of 3 copper concentrations (value not shown), 4th of four biocide concentrations) “Tox”.

For the origin of these results see patent US11382328B2, “Rapid drug discovery methods for pathogen inactivation” (priority 2019, dated 2022).
